Test results from ChEMBL document CHEMBL1145202, “A series of ligands displaying a remarkable agonistic-antagonistic profile at the adenosine A1 receptor” (J Med Chem, 2005).
pKi: −log10 of the molar value.

Key:
[1] = target: T1, Adenosine receptor A3 (Homo sapiens) (UniProt P0DMS8); assay: Percent displacement of [125I]AB-MECA binding to human adenosine A3 receptor expressed in HEK 293 cells at 1 uM; assay type: cell-based; settings: HEK293
T1 sequence (whole entry): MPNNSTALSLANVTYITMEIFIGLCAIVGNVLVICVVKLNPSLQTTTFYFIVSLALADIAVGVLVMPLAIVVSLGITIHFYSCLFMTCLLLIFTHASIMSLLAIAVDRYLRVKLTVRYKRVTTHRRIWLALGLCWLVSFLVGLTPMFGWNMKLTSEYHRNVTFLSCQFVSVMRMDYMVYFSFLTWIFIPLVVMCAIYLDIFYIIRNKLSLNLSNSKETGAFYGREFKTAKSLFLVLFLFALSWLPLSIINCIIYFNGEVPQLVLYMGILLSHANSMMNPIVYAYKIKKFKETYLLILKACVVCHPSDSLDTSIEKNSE

[2] = target: T2, Adenosine receptor A1 (Homo sapiens) (UniProt P30542); assay: Effect on forskolin-induced cAMP levels at human A1 adenosine receptor compared to CPA (full agonist, 100% inhibition) and DPCPX(full inverse agonist, 100% stimulation); assay type: functional
T2 sequence (whole entry): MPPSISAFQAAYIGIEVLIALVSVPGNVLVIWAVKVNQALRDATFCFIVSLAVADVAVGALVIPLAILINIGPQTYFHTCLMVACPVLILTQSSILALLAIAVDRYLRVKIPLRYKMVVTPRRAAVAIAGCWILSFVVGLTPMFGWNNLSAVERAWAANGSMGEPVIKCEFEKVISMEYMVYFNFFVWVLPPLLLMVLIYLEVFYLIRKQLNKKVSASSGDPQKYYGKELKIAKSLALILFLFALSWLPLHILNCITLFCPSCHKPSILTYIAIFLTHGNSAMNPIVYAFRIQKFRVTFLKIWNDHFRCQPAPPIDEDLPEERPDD

Adenosine receptor A1 = target: T3, Adenosine receptor A1 (Homo sapiens, UniProt P30542); assay: biochemical
T3 sequence (P30542 whole entry): T2 sequence (whole entry)
Description: Displacement of [3H]DPCPX binding to human adenosine A1 receptor expressed in CHO cells

[3] = target: Adenosine receptor A2a (Homo sapiens) (UniProt P29274); assay: Percent displacement of [3H]-ZM 241385 binding to human adenosine A2A receptor expressed in CHO cells at 1 uM; assay type: cell-based
[4] = target: T2, Adenosine receptor A1 (Homo sapiens); assay: Percent displacement of [3H]DPCPX binding to human adenosine A1 receptor expressed in CHO cells at 1 uM; assay type: cell-based

Chain of Adenosine receptor A2a (Homo sapiens) (P29274 whole entry): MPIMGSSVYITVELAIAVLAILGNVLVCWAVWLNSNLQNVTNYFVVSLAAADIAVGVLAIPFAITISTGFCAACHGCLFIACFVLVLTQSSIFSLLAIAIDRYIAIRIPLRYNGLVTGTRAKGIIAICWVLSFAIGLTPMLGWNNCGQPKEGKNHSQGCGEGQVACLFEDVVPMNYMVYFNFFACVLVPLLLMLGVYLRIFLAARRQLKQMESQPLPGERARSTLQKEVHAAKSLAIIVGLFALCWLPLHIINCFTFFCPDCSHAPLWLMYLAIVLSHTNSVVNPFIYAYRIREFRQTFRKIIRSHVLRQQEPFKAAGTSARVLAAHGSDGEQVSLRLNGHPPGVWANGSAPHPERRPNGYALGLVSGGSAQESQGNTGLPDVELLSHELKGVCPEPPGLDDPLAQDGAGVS

| Displacement [1] [%] | Change in cAMP [2] [%] | pKi (Adenosine receptor A1) | Displacement [3] [%] | Displacement [4] [%] | SMILES |
| --- | --- | --- | --- | --- | --- |
| 7 | -65 | 6.61 | 0 |  | CN(C)c1ccc(-c2c(C#N)c(N)nc(SCCO)c2C#N)cc1 |
| 15 | 72 | 5.97 |  |  | Cn1cnc2c(NC3CCCC3)ncnc21 |
|  | -100 |  |  |  | OC[C@H]1O[C@@H](n2cnc3c(NC4CCCC4)ncnc32)[C@H](O)[C@@H]1O |
| 0 | -51 | 7.09 | 4 |  | N#Cc1c(N)nc(SCCO)c(C#N)c1-c1ccc(F)cc1 |
| 0 |  |  | 25 | 25 | COc1ccc(-c2c(C#N)c(N)nc(SCCO)c2C#N)cc1OC |
| 21 | -16 | 7.39 | 8 |  | COc1ccc(-c2c(C#N)c(N)nc(SCCO)c2C#N)cc1 |
|  | 100 |  |  |  | CCCn1c(=O)c2[nH]c(C3CCCC3)nc2n(CCC)c1=O |
| 18 | -58 | 8.37 | 21 |  | COc1cccc(-c2c(C#N)c(N)nc(SCCO)c2C#N)c1 |
| 0 | -16 | 7.31 | 20 |  | Cc1ccc(-c2c(C#N)c(N)nc(SCCO)c2C#N)cc1 |
| 5 | -78 | 7.09 | 29 |  | Cc1cccc(-c2c(C#N)c(N)nc(SCCO)c2C#N)c1 |

The remaining lines, values behind:

| SMILES | Displacement [1] [%] | Change in cAMP [2] [%] | pKi (Adenosine receptor A1) | Displacement [3] [%] | Displacement [4] [%] |
| --- | --- | --- | --- | --- | --- |
| N#Cc1c(N)nc(SCCO)c(C#N)c1-c1ccc(C(F)(F)F)cc1 | 0 | 48 | 6.82 | 13 |  |
| N#Cc1c(N)nc(SCCO)c(C#N)c1-c1ccc(O)cc1 | 0 | -93 | 7.64 | 37 |  |
| N#Cc1c(N)nc(SCCO)c(C#N)c1-c1ccc2c(c1)OCO2 | 13 | -111 | 7.96 | 33 |  |
| N#Cc1c(N)nc(SCCO)c(C#N)c1-c1cccc(OC(F)(F)F)c1 | 11 | 80 | 7.52 | 3 |  |
| N#Cc1c(N)nc(SCCO)c(C#N)c1-c1cccc(OC(F)F)c1 | 12 | 6 | 7.40 | 8 |  |
| N#Cc1c(N)nc(SCCO)c(C#N)c1-c1ccc(OC(F)F)cc1 | 23 | 4 | 7.47 | 0 |  |
| N#Cc1c(N)nc(SCCO)c(C#N)c1-c1ccc(OC(F)(F)F)cc1 | 10 | 12 | 6.81 | 0 |  |
| N#Cc1c(N)nc(SCCO)c(C#N)c1-c1cccc(F)c1 | 8 | -102 | 7.40 | 19 |  |
| N#Cc1c(N)nc(SCCO)c(C#N)c1-c1ccccc1 | 26 | -72 | 7.82 | 23 |  |
| N#Cc1c(N)nc(SCCO)c(C#N)c1-c1cccc(O)c1 | 16 | -105 | 7.92 | 25 |  |
| N#Cc1c(N)nc(SCCO)c(C#N)c1-c1cccc(C(F)(F)F)c1 | 49 | 85 | 7.85 | 22 |  |
